PMC7057948, “A genome-wide approach for identification and characterisation of metabolite-inducible systems” (Nature Communications, 2020)
Counter-ions that a name gives are not always drawn.

Columns and labels:
BenM [1] = molecular target: T1, BenM (Cupriavidus necator, UniProt Q0KAA5); test: cell-based; design: RFP reporter induction by transcription factor biosensor, single time-point fluorescence in LB, relative to primary effector; details: Escherichia coli TOP10; relative to primary effector, E. coli, LB; read-out: % activation
T1 construct: native full-length gene, divergent to operon starting at H16_RS09790; reporter plasmid pEH148 (plasmid assigned by list order)
T1 sequence (Q0KAA5 1-305): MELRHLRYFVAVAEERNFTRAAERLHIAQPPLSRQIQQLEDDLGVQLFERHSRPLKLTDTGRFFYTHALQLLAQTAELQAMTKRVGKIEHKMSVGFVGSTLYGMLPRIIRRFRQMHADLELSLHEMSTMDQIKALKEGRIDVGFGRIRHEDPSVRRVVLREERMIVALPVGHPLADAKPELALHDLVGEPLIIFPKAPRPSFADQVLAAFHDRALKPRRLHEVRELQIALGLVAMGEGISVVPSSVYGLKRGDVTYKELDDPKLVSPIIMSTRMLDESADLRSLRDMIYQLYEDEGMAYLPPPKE
Description: (§1) TRs often recognise molecules that are structurally similar to their primary effectors. For example, isopropyl β-D-1-thiogalactopyranoside is a commonly used structural analogue of allolactose, employed to control the expression of genes regulated by LacI. Here, the TR’s specificity was investigated to identify previously uncharacterised ligand–TR interactions and consequently extend the biosensor application to the detection of structurally similar or metabolically related compounds. To do so, the library of 21 native and heterologous inducible systems was screened against 46 compounds using an integrated robotic platform, as described in the previous section. […] Similarly to the former orthogonality screen (Fig. 6a), it should be noted that activation of reporter gene expression by the extracellularly added compounds likely indicates a structural resemblance to the primary ligand, a metabolic relationship or a combination thereof. To shed light on their cause of system activation, cultures of E. coli carrying the functional formate-, [compound left out]-, benzoate-, 3,4-dihydroxybenzoate-, acetoin- and β-alanine-inducible systems, active in this host organism, were evaluated for the same cross-reactivity (Supplementary Table 5).  Fig. 3 C. necator native systems mediate controllable gene expression in E. coli and P. putida. Single time-point fluorescence measurements of a, b E. coli and c, d P. putida carrying the C. necator-inducible gene expression systems composed of TR and promoter a, c or ‘promoter only’ version b, d. The plasmids harbouring the individual system– or promoter–reporter gene constructs are indicated. RFP fluorescence output was determined in the absence of inducer (light purple and light blue) and 6 h after extracellular supplementation with the corresponding primary effector to a final concentration of 5 mM (dark purple and dark blue). Data are mean ± SD, n = 3, *p < 0.05, **p < 0.01, ***p ≤ 0.001, ****p ≤ 0.0001, unpaired two-tailed t-test. Source data are provided as a Source Data file. All strains used in this study are listed in Supplementary Table 7. E. coli TOP10 (Life Technologies) was used for cloning and plasmid propagation. For single time-point fluorescence measurements and flow cytometric analyses, bacterial strains were propagated in Luria-Bertani (LB) medium. To determine the dose–responses and to evaluate inducer TR cross-reactivity, C. necator was cultivated in MM containing 1 g/L NH4Cl, 9 g/L Na2HPO4·12H2O, 1.5 g/L KH2PO4, 0.2 g/L MgSO4·7H2O, 0.02 g/L CaCl2·2H2O and 0.0012 g/L (NH4)5[Fe(C6H4O7)2] with 1 mL/L trace element solution SL7 (1.3 mL/L 25% (w/v) HCl, 0.07 g/L ZnCl2, 0.1 g/L MnCl2·4H2O, 0.062 g/L H3BO3, 0.190 g/L CoCl2·6H2O, 0.017 g/L CuCl2·2H2O, 0.024 g/L NiCl2·6H2O and 0.036 g/L Na2MoO4·2H2O) supplemented with 0.4% (w/v) sodium gluconate. If required, antibiotics were added to the growth medium at the following concentrations: 12.5 µg/mL tetracycline or 25 µg/mL chloramphenicol for E. coli, 50 µg/mL chloramphenicol for C. necator and 25 µg/mL tetracycline for P. putida. For solid media preparation, 15 g/L agar was added.

BenM [2] = test: cells; design: species or system Cupriavidus necator H16; RFP reporter induction by transcription factor biosensor, fluorescence normalised to cell density, relative to primary effector; details: 6 h; relative to primary effector, C. necator, MM; read-out: % activation
Experimental: (§2) To screen the 441 combinations of inducer and biosensor for cross-reactivity, we employed an automated platform (see Methods section). Strains of C. necator harbouring the inducible systems were grown in MM and transferred to a 96-well microtiter plate format. After the inducers had been extracellularly added, cells were cultured for 6 h before RFP fluorescence and cell density were measured. […] The remaining six inducible systems were activated by one or more metabolites other than their cognate inducers. This cross-reactivity may be the result of either structural resemblance, a metabolic relationship or a combination thereof. For example, L-phenylalanine is converted into L-tyrosine by the phenylalanine 4-monooxygenase PhhA (H16_RS18365). Therefore, activation of the L-tyrosine-inducible system by L-phenylalanine is more likely to be due to biological conversion of the added compound into the primary effector rather than direct interaction of L-phenylalanine with HpdA. However, since the difference between the two molecules lies in a singly hydroxyl-group, an induction by structural resemblance cannot be entirely ruled out. The same applies to phenylglyoxylate that activated the benzoate-inducible system. Phenylglyoxylate is converted by C. necator into benzoate via a two-step reaction with benzaldehyde as intermediate compound. During the first reaction, carbon dioxide is generated that may also explain induction of the formate-inducible system by the structurally dissimilar phenylglyoxylate. Since carbon dioxide can subsequently be converted into formate, it is rational to postulate that the FdsR/PH16_RS03165-inducible system is activated in this case by its primary inducer. In addition to phenylglyoxylate, the benzoate-inducible system was activated by extracellular supplementation with cyclohexanecarboxylate and cumate. Cyclohexanecarboxylate shares both a structural resemblance to benzoate and downstream  Fig. 6 Orthogonality of inducible systems. a Cross-reactivity of a set of 21 inducible systems and their corresponding primary inducers. The heat map illustrates induction of reporter gene expression in the presence of the metabolite (in %) relative to the induction mediated by the corresponding primary effector. Measurements were taken 6 h after supplementation with inducer at a final concentration of 5 mM. Data are mean, n = 4. Source data are provided as a Source Data file. b Fluorescence output of individual cells of C. necator carrying pEH263 measured by flow cytometry. The vector pEH263 contains the 3,4-dihydroxybenzoate- and [compound left out]-inducible systems controlling expression of rfp and egfp, respectively. Fluorescence was determined in the absence of inducer (orange), in the presence of 3,4-dihydroxybenzoate (blue), [compound left out] (green), and both 3,4-dihydroxybenzoate and [compound left out] (purple). Effector concentrations correspond to their respective Km’s and fluorescence was measured 2 h after inducer addition.

FdsR = FdsR (Cupriavidus necator, UniProt Q0KDY4); test: cell-based
Sequence of FdsR (Q0KDY4 1-364): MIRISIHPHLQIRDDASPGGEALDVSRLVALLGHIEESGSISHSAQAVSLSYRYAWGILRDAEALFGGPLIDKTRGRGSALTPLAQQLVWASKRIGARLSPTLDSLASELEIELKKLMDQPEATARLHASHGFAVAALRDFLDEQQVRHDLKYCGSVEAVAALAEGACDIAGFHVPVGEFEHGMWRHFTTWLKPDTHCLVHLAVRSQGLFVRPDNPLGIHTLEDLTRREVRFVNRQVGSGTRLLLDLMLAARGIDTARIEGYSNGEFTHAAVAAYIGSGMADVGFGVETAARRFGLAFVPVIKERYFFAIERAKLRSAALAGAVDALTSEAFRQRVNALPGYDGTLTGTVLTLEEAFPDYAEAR
Description: RFP reporter dose-response in C. necator H16, Hill fit on FdsR

KynR = molecular target: T2, KynR (Cupriavidus necator, UniProt Q0K7Y0); test: RFP reporter dose-response in C. necator H16, Hill fit; assay type: cell-based; details: read-out: Km^b
T2 construct: gene H16_A2813; native full-length gene, divergent to operon starting at H16_RS14030; reporter plasmid pEH136 (plasmid assigned by list order)
T2 sequence (Q0K7Y0 1-160): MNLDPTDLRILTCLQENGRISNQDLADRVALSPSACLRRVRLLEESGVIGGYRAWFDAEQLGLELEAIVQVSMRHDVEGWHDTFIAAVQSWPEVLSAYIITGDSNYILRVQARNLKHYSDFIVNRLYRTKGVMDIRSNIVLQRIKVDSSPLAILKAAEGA

OapR = test: cells; design: species or system Cupriavidus necator H16; RFP reporter induction by transcription factor biosensor, fluorescence normalised to cell density, relative to primary effector; details: 6 h; relative to primary effector, C. necator, MM; read-out: % activation
Experimental: as §2

HpdR [3] = test: cells; design: species or system Cupriavidus necator H16; RFP reporter induction by transcription factor biosensor, fluorescence normalised to cell density, relative to primary effector; details: 6 h; relative to primary effector, C. necator, MM; read-out: % activation
Experimental: as §2

HpdR [4] = system: T3, HpdR; test: RFP reporter dose-response in C. necator H16, Hill fit; assay type: cell-based, Cupriavidus necator; details: inducer concentration for half-maximal activation; extracellular inducer, minimal medium, 30 °C, 80 min; whole cells with chromosomal regulator copy; read-out: Km^b
T3 construct: native full-length gene, divergent to operon starting at H16_RS18295; reporter plasmid pEH010 (plasmid assigned by exclusion)

PhhR = molecular target: T4, PhhR (Cupriavidus necator, UniProt Q0K5I4); test: as above; assay type: cell-based; details: read-out: Km^b
T4 construct: native full-length gene, divergent to phhA (H16_RS18365); reporter plasmid pEH137 (plasmid assigned by list order)
T4 sequence (Q0K5I4 1-234): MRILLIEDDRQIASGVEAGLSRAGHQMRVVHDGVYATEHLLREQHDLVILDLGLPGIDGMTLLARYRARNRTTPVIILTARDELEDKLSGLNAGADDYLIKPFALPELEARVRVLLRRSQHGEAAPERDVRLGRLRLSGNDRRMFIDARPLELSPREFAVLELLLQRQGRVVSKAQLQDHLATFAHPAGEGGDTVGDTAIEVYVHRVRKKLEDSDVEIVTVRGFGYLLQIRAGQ
Description: RFP reporter dose-response in C. necator H16, Hill fit on PhhR

HpdA [5] = test: cells; design: species or system Cupriavidus necator H16; RFP reporter induction by transcription factor biosensor, fluorescence normalised to cell density, relative to primary effector; details: 6 h; relative to primary effector, C. necator, MM; read-out: % activation
Experimental: as §2

XdhR = system: T5, XdhR; test: RFP reporter dose-response in C. necator H16, Hill fit; assay type: cell-based, Cupriavidus necator; details: inducer concentration for half-maximal activation; extracellular inducer, minimal medium, 30 °C, 80 min; whole cells with chromosomal regulator copy; read-out: Km^b
T5 construct: native full-length gene, divergent to operon starting at H16_RS05055; reporter plasmid pEH154 (plasmid assigned by list order)

AcoR [6] = molecular target: T6, AcoR (Cupriavidus necator, UniProt P28614); test: cell-based; design: RFP reporter induction by transcription factor biosensor, single time-point fluorescence in LB, relative to primary effector; details: Escherichia coli TOP10; relative to primary effector, E. coli, LB; read-out: % activation
T6 construct: native full-length gene, divergent to operon starting at H16_RS19445; reporter plasmid pEH052 (plasmid assigned by list order)
T6 sequence (P28614 1-668): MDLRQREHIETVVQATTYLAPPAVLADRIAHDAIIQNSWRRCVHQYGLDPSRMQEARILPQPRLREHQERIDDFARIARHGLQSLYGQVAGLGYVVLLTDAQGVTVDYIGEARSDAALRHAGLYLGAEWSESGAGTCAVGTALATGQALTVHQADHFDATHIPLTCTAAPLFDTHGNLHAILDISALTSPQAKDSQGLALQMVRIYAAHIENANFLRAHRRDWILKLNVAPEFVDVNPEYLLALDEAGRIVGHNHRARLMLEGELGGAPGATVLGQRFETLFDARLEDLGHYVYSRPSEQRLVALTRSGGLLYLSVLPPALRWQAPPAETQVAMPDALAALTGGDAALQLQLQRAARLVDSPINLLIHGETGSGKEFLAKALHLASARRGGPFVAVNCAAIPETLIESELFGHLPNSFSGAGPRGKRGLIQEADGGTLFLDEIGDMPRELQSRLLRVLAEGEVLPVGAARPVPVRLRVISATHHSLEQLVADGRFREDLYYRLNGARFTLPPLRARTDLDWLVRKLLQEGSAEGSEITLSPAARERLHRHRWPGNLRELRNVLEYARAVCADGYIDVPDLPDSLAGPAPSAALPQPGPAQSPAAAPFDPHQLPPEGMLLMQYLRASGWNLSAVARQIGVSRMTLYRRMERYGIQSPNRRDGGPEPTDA
Description: as §1

AcoR [7] = test: cells; design: species or system Cupriavidus necator H16; RFP reporter induction by transcription factor biosensor, fluorescence normalised to cell density, relative to primary effector; details: 6 h; relative to primary effector, C. necator, MM; read-out: % activation
Experimental: as §2

PcaQ = molecular target: T7, PcaQ (Cupriavidus necator, UniProt Q0JYV0); test: RFP reporter dose-response in C. necator H16, Hill fit; assay type: cell-based; details: read-out: Km^b
T7 construct: native full-length gene, divergent to operon starting at H16_RS30145; reporter plasmid pEH161 (plasmid assigned by list order)
T7 sequence (Q0JYV0 1-317): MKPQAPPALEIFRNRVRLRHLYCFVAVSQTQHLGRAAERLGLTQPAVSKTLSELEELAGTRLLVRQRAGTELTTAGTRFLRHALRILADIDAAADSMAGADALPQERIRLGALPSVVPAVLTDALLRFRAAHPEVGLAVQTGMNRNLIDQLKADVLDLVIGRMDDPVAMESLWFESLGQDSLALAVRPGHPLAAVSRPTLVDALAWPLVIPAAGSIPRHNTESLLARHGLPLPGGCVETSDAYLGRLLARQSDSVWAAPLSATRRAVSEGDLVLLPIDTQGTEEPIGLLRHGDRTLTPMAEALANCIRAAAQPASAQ

HpdA [8] = system: T8, HpdA; test: as above; assay type: cell-based, Cupriavidus necator; details: inducer concentration for half-maximal activation; extracellular inducer, minimal medium, 30 °C, 80 min; whole cells with chromosomal regulator copy; read-out: Km^b
T8 construct: native full-length regulator gene, divergent to operon starting at H16_RS24175; reporter plasmid pEH158 (plasmid assigned by list order)
Description: RFP reporter dose-response in C. necator H16, Hill fit on HpdA

O=C(O)C1CCCCC1 [compound 14, Cyclohexanecarboxylate]
activity at 5000 µM (BenM [1]): 4.3%
activity at 5000 µM (BenM [2]): 110%

O=CO [compound 2, Formate]
EC50 (FdsR): 130 ± 7 µM

Nc1ccccc1C(=O)C[C@H](N)C(=O)O [compound 9, L-kynurenine]
EC50 (KynR): 2640 ± 180 nM

C=CC(=O)O [Acrylate]
activity at 5000 µM (OapR): 68%
activity at 5000 µM (HpdR [3]): 113%

O=C(O)CCO [compound 10, 3-Hydroxypropanoate]
EC50 (HpdR [4]): 13.2 ± 1.9 µM

N[C@@H](Cc1ccccc1)C(=O)O [compound 11, L-phenylalanine]
EC50 (PhhR): 16.9 ± 2.2 µM
activity at 5000 µM (HpdA [5]): 77%

O=c1[nH]c(=O)c2[nH]cnc2[nH]1 [compound 3, Xanthine]
EC50 (XdhR): 13 ± 1.4 µM

CC(C)c1ccc(C(=O)O)cc1 [cumate]
activity at 5000 µM (AcoR [6]): 0%
activity at 5000 µM (BenM [1]): 2%
activity at 5000 µM (AcoR [7]): 18%
activity at 5000 µM (BenM [2]): 100%

O=C(O)c1ccc(O)c(O)c1 [compound 16, 3,4-Dihydroxybenzoate]
EC50 (PcaQ): 8.63 ± 0.4 µM

N[C@@H](Cc1ccc(O)cc1)C(=O)O [compound 13, L-tyrosine]
EC50 (HpdA [8]): 9.9 ± 2.2 µM
